Measured values reported in patent US20220288143A1, “PHARMACEUTICAL COMPOSITION FOR TREATING CANCER, COMPRISING VACCINIA VIRUS AND GRANULOPOIESIS INHIBITOR AS ACTIVE INGREDIENTS” (priority 2019, published 2022).

Columns and labels:
[1] = tested on: neutrophils; type: in vivo, mouse; conditions: Renca mice; day 8; compared with negative control group (saline); hydroxyurea 30 mg/kg i.p.
[2] = tested on: neutrophils; experiment: Neutrophil count (CBC), Renca-transplanted mice, lenalidomide or hydroxyurea (Exp. Ex. 17); type: in vivo, mouse; conditions: day 5, 30 mg/kg i.p. daily, compared with group administered saline
Experimental: Balb/c mice (female, 8-week-old) purchased from Orient Bio (Busan, Korea) were subjected to a one-week acclimatization period, and then allografted with Renca cancer cell line (Korea Cell Line Bank) at 5×10^6 cells. After another one-week acclimatization period, the mice were divided into 3 groups (n=3) and administered intraperitoneally with saline, hydroxyurea (30 mg/kg), and lenalidomide (30 mg/kg), respectively, daily from 1 day before the administration of the oncolytic virus to day 4 after the administration.
As a result of performing a complete blood count (CBC) by sacrificing the mice in each group on day 5 after administering the oncolytic virus, it was confirmed that the neutrophil count of the mice in the group administered with lenalidomide was reduced as compared with the group administered with saline, except for one outlier mouse.

Row | SMILES | absolute neutrophil count (ANC) [1] | neutrophil count [2]
1 | NC(=O)NO [hydroxyurea] | decreased | significantly lower
2 | Nc1cccc2c1CN(C1CCC(=O)NC1=O)C2=O (stereo not drawn) [lenalidomide] |  | reduced
